Assay results published in publication PMC10730845, “Endoxifen downregulates AKT phosphorylation through protein kinase C beta 1 inhibition in ERα+ breast cancer” (NPJ Breast Cancer, 2023).
Values joined by “and” are separate entries in the source; they are usually repeats but may differ in a detail not shown here. Equal entries are not always repeated. Where two headings read alike, the source gives them in different places.

Tests used:
[1] = mice, cited from earlier work; for Cmax: read-out: Plasma Cmax
[2] = system: AKT phosphorylation (pAKT^Ser473, pAKT^Thr308, p-AKT substrates) in MCF7AC1 cells; assay: Immunoblot of AKT signaling and PARP cleavage, MCF7AC1; type: cell-based, human
Protocol: The ENDX hydrochloride utilized in this study was synthesized in collaboration between Mayo Clinic and National Institute of Health (NIH). Estrogen deprived MCF7AC1 were treated with vehicle control or ENDX (National Cancer Institute) for 24 h. […] For the insulin (Sigma-Aldrich, #I0516) experiments, MCF7AC1 and T47D cells were maintained in serum-free medium for 24 h prior to pretreatment with vehicle control or drugs for 2 h followed by treatment with 100 nM insulin for 1 h.
Protein lysates were prepared using the RIPA lysis buffer system (ChemCruz #sc-24948) and quantified using the DC^TM Protein Assay reagents (Bio-Rad #5000112). Equal amounts of protein lysates were separated on 10% Criterion gels (Bio-Rad #3450112), transferred to PVDF membranes (Bio-Rad #1620177), blocked in TBST-5% milk and probed with primary antibodies listed in Supplementary Table 5, at the indicated dilutions. Membranes were incubated with HRP-conjugated anti-rabbit (CST #7074) or anti-mouse (CST #7076) secondary antibodies and visualized using chemiluminescent West Pico (Thermo Scientific #34580) or West Femto (Thermo Scientific #34096) reagents and a Li-Cor Odyssey® XF imager. Protein lysates from the MCF7AC1 xenograft model were obtained from a previous study. Quantitation of the protein bands signal intensity was performed using the NIH ImageJ image analysis software (https://imagej.nih.gov/ij///index.html). For the quantitation of the phospho protein levels, we first normalized total protein levels to β-actin loading control and used these values to normalize the phospho protein levels and compared change in protein expression levels relative to vehicle control normalized to 1.0. For the quantitation of total protein levels, we normalized the total protein levels to β-actin and compared change in expression levels relative to vehicle control normalized to 1.0. All blots were processed in parallel and derived from the same experiments. Unprocessed immunoblot images are provided in Supplementary Figs. 9–13.

[3] = biological target: PKC iota (PKCi) (Homo sapiens, UniProt P41743); assay: In vitro kinase assay, PKC iota; type: biochemical; details: 10 μM ATP
Source text: (§1) Supplementary Table 4. In vitro kinase assay showing the IC 50 concentration of ENDX and
(§2) of the 12 PKC family members.
(§3) (1 picture or pasted object on this page, not shown here)

[4] = biological target: PKC nu (PKCn/PRKD3) (Homo sapiens, UniProt O94806); assay: In vitro kinase assay, PKC nu; type: biochemical; details: 10 μM ATP
Source text: as §1, §2, §3

[5] = system: T47D-LTED cells; assay: IncuCyte Annexin V apoptosis assay, T47D-LTED; type: cell-based, human; details: CSS medium, 48 h; 5 µM
Protocol: MCF7AC1 and T47D-LTED cells were plated at a density of 2000 cells per well in CSS medium for 24 h. Cells were then co-treated for 48 h with vehicle or drug, IncuCyte Annexin V green reagent (#4642, 1:300), an early-stage apoptosis marker, and IncuCyte NucLight rapid red reagent (#4717, 1:500), a dye that stains all cell nuclei red, in CSS medium. MCF7AC1^caAKT cells were plated at a cell density of 2000 cells per well in CSS medium in the absence or presence of cumate for 48 h and then co-treated with vehicle or drug, Annexin V green and NucLight rapid red reagents in the absence or presence of cumate for an additional 48 h in CSS medium.
Supplementary Figure 6. […] Cell viability is assessed by the crystal violet assay. b, MCF7AC1 cells were co-treated with vehicle control or 0.01, 0.1 and 5 µM MK-2206 and IncuCyte Annexin V green and NucLight rapid red reagents in CSS medi um for 48 hours. […]
Cells were plated at a density of 2000 cells per well. c, MCF7AC1 cells were treated with vehicle control or 0.01, 0.1 and 5 µM MK-2206 in CSS medium for 24 hours. […] Cell viability is assessed by the crystal violet assay. f, Parental T47D and T47D-LTED cells were processed for protein lysates. […] Percentage of cells undergoing apoptosis was calculated as mentioned in b. i, T47D-LTED cells were treated with vehicle control or 0.01, 0.1 and 5 µM MK -2206 in CSS medium for 24 hours . […]

[6] = system: MDAMB231 cells; assay: IncuCyte Annexin V apoptosis assay, MDAMB231; type: cell-based, human; details: CSS medium, 48 h, 0–10 µM tested; no apoptosis below the highest concentration
Protocol: Supplementary Figure 8. ENDX neither induces apoptosis nor inhibit growth of ER - breast cancer cells. a, MDAMB231 cells grown in CSS medium were co -treated with vehicle control or the indicated ENDX concentrations, IncuCyte Annexin V green and NucLight red reagents in CSS medium for 48 hours. The apoptosis graphs are presented as the green object count […]
software. Cells were plated at a density of 2000 cells per well. Data represents the mean of six

[7] = CSS medium, 24 h, not at 0.01 and 0.1 μM

PKC iota (PKCi), sequence (P41743 whole entry): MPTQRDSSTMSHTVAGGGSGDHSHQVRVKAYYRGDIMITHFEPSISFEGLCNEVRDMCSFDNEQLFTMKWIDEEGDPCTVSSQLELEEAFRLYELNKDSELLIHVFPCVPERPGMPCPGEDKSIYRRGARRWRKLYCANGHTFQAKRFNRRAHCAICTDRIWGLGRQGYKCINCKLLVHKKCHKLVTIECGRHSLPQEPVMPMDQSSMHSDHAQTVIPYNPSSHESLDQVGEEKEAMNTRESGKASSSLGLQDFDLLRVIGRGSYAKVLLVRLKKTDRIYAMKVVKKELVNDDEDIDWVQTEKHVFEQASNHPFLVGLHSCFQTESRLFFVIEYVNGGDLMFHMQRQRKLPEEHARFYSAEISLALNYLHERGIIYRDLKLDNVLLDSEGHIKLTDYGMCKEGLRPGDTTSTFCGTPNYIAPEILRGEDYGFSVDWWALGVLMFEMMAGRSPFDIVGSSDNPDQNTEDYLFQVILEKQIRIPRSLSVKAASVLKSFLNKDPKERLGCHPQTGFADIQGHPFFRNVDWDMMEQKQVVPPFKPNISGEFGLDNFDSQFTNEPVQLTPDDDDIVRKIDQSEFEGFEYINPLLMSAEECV
PKC nu (PKCn/PRKD3), sequence (O94806 whole entry): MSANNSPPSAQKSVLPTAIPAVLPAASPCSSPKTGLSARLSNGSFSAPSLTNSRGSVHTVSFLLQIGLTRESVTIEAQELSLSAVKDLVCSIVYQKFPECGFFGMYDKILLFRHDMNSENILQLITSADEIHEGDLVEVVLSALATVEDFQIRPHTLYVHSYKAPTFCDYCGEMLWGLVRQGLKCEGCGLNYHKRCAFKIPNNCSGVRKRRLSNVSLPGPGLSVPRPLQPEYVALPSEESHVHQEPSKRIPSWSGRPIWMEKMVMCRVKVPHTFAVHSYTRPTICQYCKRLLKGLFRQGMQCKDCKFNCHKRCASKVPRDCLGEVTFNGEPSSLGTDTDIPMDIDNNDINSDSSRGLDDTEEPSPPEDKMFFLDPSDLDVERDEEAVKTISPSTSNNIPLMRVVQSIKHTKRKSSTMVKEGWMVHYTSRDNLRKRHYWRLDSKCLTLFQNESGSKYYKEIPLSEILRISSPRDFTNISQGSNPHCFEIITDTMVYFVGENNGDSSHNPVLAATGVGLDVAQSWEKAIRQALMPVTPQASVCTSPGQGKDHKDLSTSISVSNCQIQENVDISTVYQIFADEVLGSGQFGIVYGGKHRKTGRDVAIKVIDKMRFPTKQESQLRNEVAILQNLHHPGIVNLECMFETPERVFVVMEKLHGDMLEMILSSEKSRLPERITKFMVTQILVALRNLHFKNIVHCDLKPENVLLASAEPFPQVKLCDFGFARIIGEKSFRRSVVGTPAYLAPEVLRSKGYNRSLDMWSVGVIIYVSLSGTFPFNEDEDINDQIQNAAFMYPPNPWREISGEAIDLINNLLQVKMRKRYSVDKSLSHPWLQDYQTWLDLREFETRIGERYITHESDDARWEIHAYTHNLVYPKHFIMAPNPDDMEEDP

## CC/C(=C(\c1ccc(O)cc1)c1ccc(OCCNC)cc1)c1ccccc1 [ENDX, Z-endoxifen]
[1]; 25 mg/kg for five consecutive days, 25 mg/kg
  Plasma concentration: 73.1 ± 16.8 ng/ml and 0.20 ± 0.04 µM
[1]; 100 mg/kg for five consecutive days, 100 mg/kg
  Plasma concentration: 1700 ± 60 ng/ml and 4.55 ± 0.16 µM
[1]; single dose 25 mg/kg
  Plasma Cmax: 103 ± 97 ng/mL
  Cmax: 280 ± 260 nM
[1]; single dose 75 mg/kg
  Plasma Cmax: 660 ± 511 ng/mL
  Cmax: 1770 ± 1370 nM
[2]; CSS medium, 24 h, 5 µM
  Effect on AKT^Thr308 phosphorylation: did not alter AKT^Thr308 phosphorylation
[2]; CSS medium, 24 h, 0.01, 0.1 and 5 µM tested
  Concentration increasing PARP cleavage: 5 µM
[2]; CSS medium, 24 h, 0.01 and 0.1 µM
  Effect on AKT^Thr308 phosphorylation: stimulated AKT^Thr308 phosphorylation
[2]; [7]
  Concentration attenuating AKT^Ser473 phosphorylation: 5 µM
  Concentration reducing phosphorylation of AKT substrates: 5 µM
[2]; serum starved, 100 nM insulin 1 h, 5 μM
  Effect on insulin-stimulated AKT^Thr308 phosphorylation: able to block AKT^Thr308 phosphorylation
[2]; serum starved, 2 h pretreatment, 100 nM insulin 1 h, 5 µM
  Effect on insulin-stimulated phosphorylation of AKT substrates: diminished insulin-stimulated phosphorylation of AKT substrates
[2]; serum starved, 2 h pretreatment, 100 nM insulin 1 h, not at 0.01 and 0.1 μM
  Concentration blocking insulin-stimulated AKT^Ser473 phosphorylation: 5 µM
[2]; serum starved, 2 h pretreatment, 200 nM PMA 20 min, 5 μM
  Effect on PMA-stimulated AKT^Ser473 phosphorylation: reduced AKT^Ser473 phosphorylation
[3]
  IC50: > 50 µM
[4]
  IC50: 26.4 µM
[5]
  Effect on apoptosis (annexin V binding, PARP1 cleavage): induced apoptosis
[6]
  Concentration at which apoptosis was induced: 10 µM
